According to ChEMBL document CHEMBL1201862, “PubChem BioAssay data set” (2004):
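How tested: cells in 96-well plates exposed to compound for 48 hours at five concentrations. GI50 marks 50% less growth.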 The source made the active and inactive calls. No stated cut-off is given here; in the data, active = GI50 up to about 1.1 µM and inactive = higher.

What was measured:
Experiment in all cases: inhibition of tumour cell growth, NCI panel, 48 h
[1] = tested on: A498
[2] = tested on: A549
[3] = tested on: ACHN
[4] = tested on: CAKI-1
[5] = tested on: CCRF-CEM
[6] = tested on: DLD-1
[7] = tested on: DMS-114
[8] = tested on: DMS-273
[9] = tested on: EKVX
[10] = tested on: HCC 2998
[11] = tested on: HCT-116
[12] = tested on: HCT-15
[13] = tested on: HL-60
[14] = tested on: HOP-18
[15] = tested on: HOP-62
[16] = tested on: HT-29
[17] = tested on: IGROV-1
[18] = tested on: K562
[19] = tested on: KM-20L2
[20] = tested on: LOX IMVI
[21] = tested on: LXFL 529
[22] = tested on: M14
[23] = tested on: M19-MEL
[24] = tested on: MOLT-4
[25] = tested on: Malme-3M
[26] = tested on: NCI-H226
[27] = tested on: NCI-H23
[28] = tested on: NCI-H460
[29] = tested on: NCI-H522
[30] = tested on: OVCAR-3
[31] = tested on: OVCAR-4
[32] = tested on: OVCAR-5
[33] = tested on: OVCAR-8
[34] = tested on: RPMI-8226
[35] = tested on: RXF 393
[36] = tested on: RXF 631
[37] = tested on: SF-268
[38] = tested on: SF-295
[39] = tested on: SF-539
[40] = tested on: SK-MEL-2
[41] = tested on: SK-MEL-5
[42] = tested on: SK-OV-3
[43] = tested on: SN12C
[44] = tested on: SNB-19
[45] = tested on: SNB-75
[46] = tested on: SNB-78
[47] = tested on: SR
[48] = tested on: SW-620
[49] = tested on: TK-10
[50] = tested on: U-251
[51] = tested on: UACC-257
[52] = tested on: UACC-62
[53] = tested on: UO-31
[54] = tested on: 786-0
[55] = tested on: COLO 205
[56] = tested on: HOP-92
[57] = tested on: KM12
[58] = tested on: SK-MEL-28

COc1ccc(/C(Cl)=C(\C=O)c2ccc(OC)cc2)cc1
GI50 [1]: > 100 µM (inactive)
GI50 [2]: 46.9 µM (inactive)
GI50 [3]: 84.3 µM (inactive)
GI50 [4]: > 100 µM (inactive)
GI50 [5]: 22.2 µM (inactive)
GI50 [6]: 33.2 µM (inactive)
GI50 [7]: > 100 µM (inactive)
GI50 [8]: 37 µM (inactive)
GI50 [9]: > 100 µM (inactive)
GI50 [10]: > 100 µM (inactive)
GI50 [11]: 61.9 µM (inactive)
GI50 [12]: 43.7 µM
GI50 [13]: 15.9 µM (inactive)
GI50 [14]: 63.8 µM (inactive)
GI50 [15]: > 100 µM (inactive)
GI50 [16]: > 100 µM (inactive)
GI50 [17]: > 100 µM (inactive)
GI50 [18]: 63 µM (inactive)
GI50 [19]: > 100 µM (inactive)
GI50 [20]: 80 µM (inactive)
GI50 [21]: > 100 µM (inactive)
GI50 [22]: > 100 µM (inactive)
GI50 [23]: 93.3 µM (inactive)
GI50 [24]: 7 µM (inactive)
GI50 [25]: > 100 µM (inactive)
GI50 [26]: > 100 µM (inactive)
GI50 [27]: > 100 µM (inactive)
GI50 [28]: 31.5 µM (inactive)
GI50 [29]: 18.3 µM (inactive)
GI50 [30]: 64.9 µM (inactive)
GI50 [31]: 48.1 µM (inactive)
GI50 [32]: > 100 µM (inactive)
GI50 [33]: 59.4 µM (inactive)
GI50 [34]: 37.9 µM (inactive)
GI50 [35]: > 100 µM (inactive)
GI50 [36]: 58.3 µM (inactive)
GI50 [37]: > 100 µM (inactive)
GI50 [38]: 59.8 µM (inactive)
GI50 [39]: > 100 µM (inactive)
GI50 [40]: > 100 µM (inactive)
GI50 [41]: > 100 µM (inactive)
GI50 [42]: > 100 µM (inactive)
GI50 [43]: > 100 µM (inactive)
GI50 [44]: > 100 µM (inactive)
GI50 [45]: > 100 µM (inactive)
GI50 [46]: > 100 µM (inactive)
GI50 [47]: 10.8 µM (inactive)
GI50 [48]: > 100 µM (inactive)
GI50 [49]: > 100 µM (inactive)
GI50 [50]: 70.8 µM (inactive)
GI50 [51]: 72.4 µM (inactive)
GI50 [52]: > 100 µM (inactive)
GI50 [53]: > 100 µM (inactive)

COC1=CC(=C(C#N)/C(=N\c2ccccc2)SC)C=C(OC)C1=O
GI50 [54]: 31.6 µM (inactive)
GI50 [1]: 20.9 µM (inactive)
GI50 [2]: 78.9 µM (inactive)
GI50 [3]: 40.8 µM (inactive)
GI50 [4]: > 100 µM (inactive)
GI50 [5]: 16 µM (inactive)
GI50 [55]: > 100 µM (inactive)
GI50 [6]: 24.5 µM (inactive)
GI50 [8]: 36.1 µM (inactive)
GI50 [9]: > 100 µM (inactive)
GI50 [10]: 94.8 µM (inactive)
GI50 [11]: 29.9 µM (inactive)
GI50 [12]: 80.7 µM
GI50 [14]: > 100 µM (inactive)
GI50 [56]: 3.84 µM (inactive)
GI50 [16]: > 100 µM (inactive)
GI50 [17]: 86.1 µM (inactive)
GI50 [18]: 22.6 µM (inactive)
GI50 [57]: 63.2 µM (inactive)
GI50 [20]: 39.5 µM (inactive)
GI50 [21]: 17.5 µM (inactive)
GI50 [22]: > 10 µM (inactive)
GI50 [23]: 70.6 µM (inactive)
GI50 [24]: 20.8 µM (inactive)
GI50 [25]: > 100 µM (inactive)
GI50 [27]: 54.5 µM (inactive)
GI50 [28]: 70.6 µM (inactive)
GI50 [29]: 37.6 µM (inactive)
GI50 [30]: 31.2 µM (inactive)
GI50 [33]: 31.1 µM (inactive)
GI50 [34]: 18.8 µM (inactive)
GI50 [35]: 24.4 µM (inactive)
GI50 [36]: > 100 µM (inactive)
GI50 [38]: 69.2 µM (inactive)
GI50 [39]: > 100 µM (inactive)
GI50 [58]: > 100 µM (inactive)
GI50 [41]: 20.7 µM (inactive)
GI50 [42]: > 100 µM (inactive)
GI50 [43]: > 100 µM (inactive)
GI50 [45]: 95.3 µM (inactive)
GI50 [46]: 67.9 µM (inactive)
GI50 [48]: 38.7 µM (inactive)
GI50 [49]: > 100 µM (inactive)
GI50 [50]: 0.352 µM (active)
GI50 [51]: 56.6 µM (inactive)
GI50 [52]: 44.3 µM (inactive)
GI50 [53]: 36.5 µM (inactive)
